Experimental data reported in patent US20180371408A1, “CELL CULTURES AND METHODS OF USE” (priority 2017, published 2018).
Like-named read-outs stand apart in the source and are kept apart here.

How the values were obtained:
[1] = test system: Spermatogonial cells (C18-4); experiment: cells; type: cell-based, mouse; conditions: Mus musculus, read-out: IC50
Leydig cells (TM3) = experiment: cells; type: cell-based, mouse; conditions: Mus musculus, Leydig, read-out: IC50
Sertoli cells (TM4) = experiment: cells; type: cell-based, mouse; conditions: Mus musculus, read-out: IC50
[2] = test system: testicular cell co-culture (C18-4, TM4, TM3); experiment: Machine learning-based HCA phenotype classification (multinucleated cells, M phase, stretching F-actin filaments); type: cell-based, mouse; conditions: for induction of multinucleated cells, in words: FIG. 12F
Source text: Our processing pipeline included cell segmentation, localization, and measurements of multiple features of single cells. This pipeline identified the nuclei from the Hoechst 33342 (nuclei) channel and used the nuclei as primary objects to assist in the identification of secondary objects, which included F-actin and γ-H2AX in each cell. The pipeline (which is freely available from the authors upon request) has the ability to measure over 200 cellular features, including size, shape, intensity, and texture of nuclei, intensity, and texture of F-actin, and intensity of γ-H2AX in a single cell. In order to measure the nuclear area and shape of a cell, multiple features such as object area, perimeter eccentricity and orientation had to be extracted. Object intensity was determined through measurements of various intensity statistics including the integrated intensity, the mean intensity, and the maximal or minimal pixel intensities within an object or on the object's edge. To quantify the object's texture, Haralick texture features derived from the co-occurrence matrix were employed to calculate the occurrence of pairs of pixels with specific intensity values and spatial relationships in an image. The texture features were described by homogeneity, local variation, randomness, and the contrast of object texture. Supervised ML was performed with the CellProfiler Analyst via the “RandomForest Classifier” algorithm (Broad Institute, MA) (Jones et al., 2008). RandomForest is an ensemble learning method that constructs decision trees with an averaged prediction, and is robust in high-dimensional data analysis with low bias (Breiman, 2001).
In the current study, we quantified three key phenotypic changes in the co-culture model. The first change we noticed was the induction of multinucleated cells, a unique toxicity marker for BPAF observed in spermatogonia cells in the previous study, was once again examined in the current co-culture testicular cell model. As depicted in FIG. 10, the multinucleated phenotype was identified as a cell with giant nuclei and irregular nuclear contour. […] Mitotic phenotypes were identified as cells with small condensed nuclei with a round shape (prometaphase), condensed nuclei with shallow concavities (metaphase), and nuclei with separated and aligned chromosomes (anaphase, telophase, and late telophase). […] Cells with phenotypic 3D structure have F-actin bundles stretching across their cytoplasm. During the training process, a small set of unclassified objects were manually sorted into two classes, including non-multinucleated cells or multinucleated cells, cells not in M phases or cells in M phase, and cells with or without stretching F-actin filaments. The maximum number of features was set as 20 in order to generate rules for phenotypic classification, and those features were automatically selected by the RandomForest classifier to capture the subtle differences between the classes. The phenotype classification was based on the images acquired by Arrayscan™ VTI HCS reader, and multiple features were measured by CellProfiler. The input features included values describing nuclei size and shape, DNA intensity and texture, F-actin intensity and texture, and γ-H2AX intensity at the single-cell level. For multinucleated cells and M phase cells, the training set was established by visual examination of the images in the nuclei channel. For a cell with stretching F-actin filaments, initial manual classification during the training process was based on multi-channel images, including nuclei, F-actin and γ-H2AX. The results were presented in terms of the number of cells in predefined classes and total cell number per image field. The field-based data were averaged for the well-based condition.
(§1) Data were presented as mean±standard deviation (SD).

[3] = test system: testicular cell co-culture (C18-4, TM4, TM3); experiment: BrdU incorporation (DNA synthesis) and cell cycle HCA; type: cell-based, mouse
Protocol: (§2) BrdU incorporation, cell fixation, BrdU, and DNA staining followed the previously published protocol (Liang, et al., 2017b). the determination of DNA damage responses and cytoskeleton analysis was conducted after cell fixation. The cells were then permeabilized by a 0.1% Triton X-100 in PBS, and then incubated with a mouse-anti phosphor-histone H2AX (Ser139) (γ-H2AX) overnight at 4° C. […] Finally, prior to acquiring the images, the cells were stained with Alexa Fluor 488 Phallodin for 30 minutes to stain the F-actin (Liang, et al., 2017)
(§3) Multi-Channel images were analyzed using HCS Studio™2.0 TargetActivation BioApplication. Multiple parameters of nuclei were characterized in HCA, including nuclei number, nuclear area, shape, and total DNA intensity. Nuclear shape measurements included P2A, a ratio of the nuclear perimeter squared to 4it*nucleus area (perimeter^2/4π*enuclear area) to evaluate nuclear smoothness, and LWR, a ratio of the nuclear length to width, to measure nuclear roundness. For a fairly round and smooth object, the values for P2A and LWR are around 1.0. Total intensity was defined as total pixel intensity within a cell in the respective channel. The total intensities of BrdU, γ-H2AX, and F-actin of the individual cells were also quantified. With forty-nine 20× images acquired from each well, at least 1,000 cells were analyzed per well, and single-cell based data were extracted for further analysis. The experiments were performed with at least four biological replicates and repeated twice.
as §1

[4] = test system: testicular cell co-culture (C18-4, TM4, TM3); experiment: HCA of F-actin cytoskeleton and γ-H2AX DNA damage response; type: cell-based, mouse; conditions: for effect on F-actin cord-like structures, in words: FIG. 14A: BPA and BPS 100 μM, BPAF 5 and 15 μM, TBBPA 15 μM, 48 h; for doses inducing DNA damage response (γ-H2AX): co-culture model; for γ-H2AX expression, in words: co-cultures, up to 100 μM
Protocol: as §2
Multi-channel images were then automatically acquired using an Arrayscan™ VTI HCS reader (Thermo Scientific, MA) with the HCS Studio 2.0 Target Activation BioApplication module. Forty-nine fields per well were acquired at 20× and 40× magnification using a Hamamatsu ROCA-ER digital camera in combination with a 0.63× coupler and Carl Zeiss microscope optics in auto-focus mode. Image smoothing was conducted in order to reduce object fragmentation prior to the primary object identification that takes place in the first channel. Channel one (Ch1) applied the BGRFR 386_23 for Hoechst 33342 that was used for auto-focus, object identification, and segmentation. The border objects were then excluded. Channel two (Ch2) applied applied the BGRFR 549_15, which identified the BrdU staining and BGRFR 485_20 to identify the F-actin staining. BGRFR 650_13 was applied in Channel three (Ch3) and identified the γ-H2AX staining.
as §3, §1

[5] = test system: testicular co-culture: spermatogonial cells (C18-4), Sertoli cells (TM4), Leydig cells (TM3); experiment: cells; conditions: Mus musculus

| SMILES | IC50 ([1]; 24 h) [µM] | IC50 ([1]; 48 h) [µM] | IC50 (Leydig cells (TM3); 24 h) [µM] | IC50 (Leydig cells (TM3); 48 h) [µM] | IC50 (Sertoli cells (TM4); 24 h) [µM] | IC50 (Sertoli cells (TM4); 48 h) [µM] | induction of multinucleated cells, in words [2] | effect on F-actin cord-like structures, in words [4] | doses inducing DNA damage response (γ-H2AX) [4] [µM] | IC50 ([5]; 24 h) [µM] | IC50 ([5]; 48 h) [µM] | doses with significant induction of cells in M phase ([2]; 48 and 72 h) [µM] | γ-H2AX expression, in words [4] | other results |
| --- | --- | --- | --- | --- | --- | --- | --- | --- | --- | --- | --- | --- | --- | --- |
| CC(C)(c1cc(Br)c(O)c(Br)c1)c1cc(Br)c(O)c(Br)c1 [TBBPA, 2,2′,6,6′-Tetrabromo-4,4′-isopropylidenediphenol] | 74.9 | 55 | 70 | 60 | 60 | 38 | did not induce multinucleation | dramatically perturbed these structures | 15 | 70 | 58 |  |  | doses with significant induction of cells in M phase ([2]; 24, 48, and 72 h): 15 µM; doses with significant decrease in BrdU-positive cells ([3]; 48 and 72 h): 15 µM; IC50 ([5]; read-out: IC50 values (mostly)): ≤ 100 µM |
| Oc1ccc(C(c2ccc(O)cc2)(C(F)(F)F)C(F)(F)F)cc1 [BPAF, 4,4′-(Hexafluoroisopropylidene)diphenol] | 70 | 58.5 | 30 | 20 | 55.4 | 22.3 |  | dramatically perturbed these structures | ≥ 5 | 78 | 50 |  |  | Spearman correlation of total F-actin and γ-H2AX intensity, multinucleated versus non-multinucleated cells ([2]; 5 μM for 24, 48, and 72 h): higher resulting positive correlation; dose significantly inducing multinucleated cells ([2]; 24, 48, and 72 h): 5 µM; doses with significant induction of cells in M phase ([2]; 24 h): 10 µM; HCA-based cell cycle analysis, in words [3]: significantly induced G2/M phase arrest; dose inducing BrdU-positive cells ([3]; 72 h): 10 µM; doses with significant decrease in BrdU-positive cells ([3]; 72 h): 15 µM |
| CC(C)(c1ccc(O)cc1)c1ccc(O)cc1 [BPA, 4,4′-(propane-2,2-diyl) diphenol] | 190 | 184 | 88 | 80.5 | 89 | 79 | did not induce multinucleation | dramatically perturbed these structures |  | 210 | 186 | 100 | did not induce γ-H2AX expression | doses with significant decrease of cells with stretching F-actin filaments (phenotypic 3D structure) ([2]; 24 h): 100 µM; doses with significant decrease in BrdU-positive cells ([3]; 24 and 48 h): 100 µM; doses with significant increase in F-actin total intensity ([4]; 72 h): 100 µM |
| O=S(=O)(c1ccc(O)cc1)c1ccc(O)cc1 [BPS, 4,4′-Sulfonyldiphenol] | 505 | 357 | 435 | ≥ 400 | 211 | 74.3 | did not induce multinucleation | induced no notable changes |  | 574 | 341 | 100 | did not induce γ-H2AX expression | doses with significant decrease of cells with stretching F-actin filaments (phenotypic 3D structure) ([2]; 72 h): 100 µM; doses with significant decrease in BrdU-positive cells ([3]; 24 h): 100 µM; doses with significant increase in F-actin total intensity ([4]; 24 and 48 h): 100 µM |
